# Data published in patent US11707448B2, “Combination therapies for the treatment of cancer” (Eisai R&D Management Co., Ltd., priority 2014, dated 2023).
# Columns and labels:
# CT26 cells = test: Rechallenge of cured (tumor-free) mice with CT26 cells; type: in vivo; details: mice cured by ER-886046 + radiation
# Excerpt: FIG. 4A to FIG. 4C. Long lasting anti-tumor effect with a memory immune response by ER-886046/radiation treatment. Panel shown in FIG. 4A) Tumor growth in the cured mice by ER-886046 and radiation combination treatment or in the naïve Ba1B/c mice that received injection of CT26 cells. Panel shown in FIG. 4B) Tumor growth of secondarily challenged CT-26 tumors in the cured mice or in naïve mice. Panel shown in FIG. 4C) Growth of 4T1 tumors in cured mice or in naïve mice. N=9-10. Note the complete rejection of challenged CT-26 tumor and reduced growth of challenged 4T1 tumors in the combination cured mice. ***, p<0.001. 2 tailed student t-test. Note that no treatment was applied to any animals.
# (§1) In case of tumor rechallenge of tumor-free mice after treatments, CT26 cells and 4T1 cells were individually sc injected into the different flanks of the same mouse, and the growth of each tumor was measured and graphed as described above. Naïve mice that received neither cancer cell injection nor drug treatment were included as controls. […] At the end of study on day 27, the mice in all treatment groups were intranasally administered luciferin and the lungs were resected and analysed for luciferase expression using IVIS instrument. Quantification of the luciferase activity in the lungs was achieved by software Living Image.
# 4T1-luc2 tumors = test: Spontaneous lung metastasis in 4T1-luc2 breast tumor model; type: in vivo, mice; details: ER-886046 150 mg/kg po daily days 9-27 + single radiation 9 Gy; day 27
# Procedure: FIG. 6A to FIG. 6B. Anti-pulmonary metastasis activity of ER-886046/radiation in breast 4T1 tumor model. 4T1-luc2 cells were subcutaneously (sc) inoculated into the Ba1B/c mice. When the average size of tumors reached 100 mm^3, the tumors were radiated with a dose of 9 Gy once with or without daily oral administration of ER-886046 at dose of 150 mg/kg. Panel shown in FIG. 6A) At the end of study on day 27, lung metastasis of the animals was analyzed and quantified by luciferase expression. Panel shown in FIG. 6B) Representative IVIS images of each group are shown. Student t-test was used for statistic analysis.
# as §1, with “above.” for “above. Naïve mice that received neither cancer cell injection nor drug treatment were included as controls.”
# Anti-spontaneous metastatic effect of ER-886046 and radiation combination therapy. […] At day 27, the mice in all treatment groups were intranasally administered luciferin and the lungs were resected and analyzed for luciferase expression.
smiles,measurement,setting,value
C[C@H](NC(=O)c1c(C(F)F)nn(C)c1Oc1cccc(C(F)(F)F)c1)c1ccc(C(=O)O)cc1 [ER-886046],tumor growth after secondary CT26 challenge,CT26 cells; 1.5 months after the first challenge,did not produce detectable tumor
same,tumor growth after CT26 challenge at another site,"CT26 cells; monitored 1.5 months, no further treatment",did not grow tumors at all
same,luciferase expression in lungs (lung metastasis),4T1-luc2 tumors,significant reduction
